Measurements as given in US20250129078A1, “ERBB2 INHIBITORS” (Cogent Biosciences, Inc., priority 2023, published 2025).
pIC50: −log10 of the molar value. Structures can show the parent of a compound that is named as a salt.

Experiments:
ErbB2 V777L = ErbB2 V777L (Homo sapiens (Human), UniProt P04626, V777L); assay: ErbB enzyme assay (CisBio HTRF-KinEASE-TK), ErbB2 V777L; assay type: biochemical
Procedure, shortened: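 HTRF KinEASE-TK tyrosine-kinase read-out of substrate phosphorylation after a final 1 h at ambient temperature, from the 655/620 nm emission ratio.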

EGFR WT = EGFR WT (Homo sapiens (Human), UniProt P00533); assay: ErbB enzyme assay (CisBio HTRF-KinEASE-TK), EGFR WT; assay type: biochemical; settings: ATP at Km (25 μM), 1 h incubation
EGFR WT, sequence (P00533 25-1210): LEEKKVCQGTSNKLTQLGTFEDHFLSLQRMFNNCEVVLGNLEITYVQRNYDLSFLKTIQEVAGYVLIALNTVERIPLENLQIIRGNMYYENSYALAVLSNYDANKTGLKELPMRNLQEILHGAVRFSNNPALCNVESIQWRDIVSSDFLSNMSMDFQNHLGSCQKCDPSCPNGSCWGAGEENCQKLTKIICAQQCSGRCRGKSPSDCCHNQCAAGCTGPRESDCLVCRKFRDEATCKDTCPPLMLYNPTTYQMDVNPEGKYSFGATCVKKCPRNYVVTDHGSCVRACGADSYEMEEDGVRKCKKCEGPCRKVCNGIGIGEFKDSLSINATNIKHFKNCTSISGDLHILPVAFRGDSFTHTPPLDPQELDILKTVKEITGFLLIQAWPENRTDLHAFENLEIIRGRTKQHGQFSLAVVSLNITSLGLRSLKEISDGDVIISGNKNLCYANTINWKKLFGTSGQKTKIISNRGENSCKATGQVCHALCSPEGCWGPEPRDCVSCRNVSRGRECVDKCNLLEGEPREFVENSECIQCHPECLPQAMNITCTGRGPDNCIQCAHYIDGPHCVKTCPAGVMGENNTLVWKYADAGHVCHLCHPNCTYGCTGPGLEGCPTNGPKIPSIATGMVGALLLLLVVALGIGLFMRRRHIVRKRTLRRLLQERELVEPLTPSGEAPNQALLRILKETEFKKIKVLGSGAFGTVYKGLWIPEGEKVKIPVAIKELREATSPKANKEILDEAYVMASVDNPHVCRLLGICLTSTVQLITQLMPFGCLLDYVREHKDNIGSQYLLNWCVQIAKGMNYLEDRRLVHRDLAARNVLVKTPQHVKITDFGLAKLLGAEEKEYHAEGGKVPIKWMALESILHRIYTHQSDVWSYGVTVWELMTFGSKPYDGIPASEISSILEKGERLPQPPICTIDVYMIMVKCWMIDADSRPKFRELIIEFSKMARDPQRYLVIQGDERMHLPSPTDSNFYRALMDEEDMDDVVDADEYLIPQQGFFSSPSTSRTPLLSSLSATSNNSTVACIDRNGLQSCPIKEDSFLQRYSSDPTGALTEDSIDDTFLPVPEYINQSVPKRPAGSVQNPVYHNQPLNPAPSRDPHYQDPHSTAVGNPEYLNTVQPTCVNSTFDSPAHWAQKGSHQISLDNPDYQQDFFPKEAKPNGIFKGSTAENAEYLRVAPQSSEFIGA
Procedure, shortened: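 Three-fold DMSO serial dilutions were added to kinase reactions and incubated 1 h at room temperature. Quench used 62.5 nM Sa-XL665 plus 0.25×TK-Ab-Cryptate in detection buffer, followed by another 1 h. Substrate phosphorylation was then measured by dual-wavelength HTRF.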

ErbB2 V777L, sequence (P04626 23-1255 V777L): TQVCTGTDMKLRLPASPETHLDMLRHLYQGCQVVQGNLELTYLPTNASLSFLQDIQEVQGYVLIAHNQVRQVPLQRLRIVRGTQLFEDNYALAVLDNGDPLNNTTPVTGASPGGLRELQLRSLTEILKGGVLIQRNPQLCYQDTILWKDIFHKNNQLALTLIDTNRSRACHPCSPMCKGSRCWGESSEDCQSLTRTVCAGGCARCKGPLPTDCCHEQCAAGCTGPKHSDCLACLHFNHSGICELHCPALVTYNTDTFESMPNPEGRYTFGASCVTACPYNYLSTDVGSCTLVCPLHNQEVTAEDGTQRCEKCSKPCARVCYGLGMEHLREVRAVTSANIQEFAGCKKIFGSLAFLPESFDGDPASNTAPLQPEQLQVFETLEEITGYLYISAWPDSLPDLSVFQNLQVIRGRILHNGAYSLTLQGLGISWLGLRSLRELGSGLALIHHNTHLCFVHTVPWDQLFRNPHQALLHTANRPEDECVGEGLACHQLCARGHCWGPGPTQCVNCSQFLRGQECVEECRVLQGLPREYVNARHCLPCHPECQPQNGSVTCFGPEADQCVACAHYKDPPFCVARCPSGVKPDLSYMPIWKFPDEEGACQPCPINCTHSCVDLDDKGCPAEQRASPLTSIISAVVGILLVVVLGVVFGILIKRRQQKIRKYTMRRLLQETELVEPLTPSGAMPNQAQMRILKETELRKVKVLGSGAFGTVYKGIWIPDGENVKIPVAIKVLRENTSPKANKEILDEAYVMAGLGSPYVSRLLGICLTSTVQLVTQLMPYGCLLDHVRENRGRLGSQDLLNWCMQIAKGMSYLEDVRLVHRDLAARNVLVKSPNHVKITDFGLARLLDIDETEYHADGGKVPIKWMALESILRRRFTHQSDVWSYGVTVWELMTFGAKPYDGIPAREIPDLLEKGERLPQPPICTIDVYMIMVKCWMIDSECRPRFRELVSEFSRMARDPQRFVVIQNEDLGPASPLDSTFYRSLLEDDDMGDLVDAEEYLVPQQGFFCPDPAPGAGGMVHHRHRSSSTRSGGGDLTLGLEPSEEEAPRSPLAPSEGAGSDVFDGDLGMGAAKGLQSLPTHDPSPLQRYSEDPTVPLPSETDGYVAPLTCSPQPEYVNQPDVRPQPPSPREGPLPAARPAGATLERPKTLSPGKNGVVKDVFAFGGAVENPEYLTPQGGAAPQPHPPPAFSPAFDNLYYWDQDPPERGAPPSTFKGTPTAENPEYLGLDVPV

Q: What does the source list for `C=CC(=O)N1CCCN(c2ncc3ncnc(Nc4ccc(Oc5cc(F)c6c(c5)ncn6C)c(C)c4F)c3n2)CC1` [Compound 112, 1-(4-(8-((2-fluoro-4-((7-fluoro-1-methyl-1H-benzo[d]imidazol-5-yl)oxy)-3-methylphenyl)amino)pyrimido[5,4-d]pyrimidin-2-yl)-1,4-diazepan-1-yl)prop-2-en-1-one]?
A: pIC50 (ErbB2 V777L): 7.00 to 7.30; pIC50 (EGFR WT): > 7.30

Q: How did the pIC50 (ErbB2 V777L) turn out when `Cc1c(Oc2ccc3c(c2)nnn3C)ccc(Nc2ncnc3cnc(N4CCN(C(=O)/C=C/CN5CC(F)C5)CC4)nc23)c1F` [Compound 59, (E)-1-(4-(8-((2-fluoro-3-methyl-4-((1-methyl-1H-benzo[d][1,2,3]triazol-5-yl)oxy)phenyl)amino)pyrimido [5,4-d]pyrimidin-2-yl)piperazin-1-yl)-4-(3-fluoroazetidin-1-yl)but-2-en-1-one] was run?
A: The pIC50 was 6.30 to 7.00.

Q: What about the pIC50 (EGFR WT) of the same molecule?
A: The pIC50 was 6.30 to 7.00.

Q: What does the source list for `C=CC(=O)N1CCCN(c2ncc3ncnc(Nc4ccc(Oc5ccc6c(c5)ncn6C)c(C)c4)c3n2)C[C@H]1C` [Compound 143, (R)-1-(2-methyl-4-(8-((3-methyl-4-((1-methyl-1H-benzo[d]imidazol-5-yl)oxy)phenyl)amino)pyrimido[5,4-d]pyrimidin-2-yl)-1,4-diazepan-1-yl)prop-2-en-1-one]?
A: pIC50 (ErbB2 V777L): 6.30 to 7.00; pIC50 (EGFR WT): ≤ 6.00

Q: `COC/C=C/C(=O)N1CCN(c2ncc3ncnc(Nc4ccc(Oc5ccc6c(c5)nnn6C)c(C)c4)c3n2)CC1` [Compound 56, (E)-4-methoxy-1-(4-(8-((3-methyl-4-((1-methyl-1H-benzo[d][1,2,3]triazol-5-yl)oxy)phenyl)amino)pyrimido [5,4-d]pyrimidin-2-yl)piperazin-1-yl) but-2-en-1-one] was tested. Which pIC50 (ErbB2 V777L) did it give?
A: Its pIC50 is 6.30 to 7.00.

Q: What about the pIC50 (EGFR WT) of the same molecule?
A: The pIC50 was 6.00 to 6.30.

Q: `C=CC(=O)N(C)[C@H]1CCCN(c2ncc3ncnc(Nc4ccc(Oc5ccc6c(c5)nnn6C)c(C)c4)c3n2)C1` [Compound 127, (S)-N-methyl-N-(1-(8-((3-methyl-4-((1-methyl-1H-benzo[d][1,2,3]triazol-5-yl)oxy)phenyl)amino)pyrimido[5,4-d]pyrimidin-2-y1)piperidin-3-yl)acrylamide] was tested. Which pIC50 (ErbB2 V777L) did it give?
A: Its pIC50 is 6.30 to 7.00.

Q: And the pIC50 (EGFR WT)?
A: Its pIC50 is 6.00 to 6.30.

Q: With `C=CC(=O)N1CCCN(c2ccc3ncnc(Nc4ccc(Oc5ccc6c(c5)nnn6C)c(C)c4)c3n2)C[C@H]1C` [Compound 285, (R)-1-(2-methyl-4-(4-((3-methyl-4-((1-methyl-1H-benzo[d][1,2,3]triazol-5-yl)oxy)phenyl)amino)pyrido[3,2-d]pyrimidin-6-yl)-1,4-diazepan-1-yl)prop-2-en-1-one] as the molecule, how does the pIC50 (ErbB2 V777L) read?
A: The pIC50 was 6.00 to 6.30.

Q: What about the pIC50 (EGFR WT) of the same molecule?
A: Its pIC50 is at most 6.00.

Q: How did the pIC50 (ErbB2 V777L) turn out when `C=CC(=O)N1CCC[C@@H](N(C)c2ncc3ncnc(Nc4ccc(Oc5ccc6c(c5)nnn6C)c(C)c4)c3n2)C1` [Compound 223, (R)-1-(3-(methyl(8-((3-methyl-4-((1-methyl-1H-benzo[d][1,2,3]triazol-5-yl)oxy)phenyl)amino)pyrimido[5,4-d]pyrimidin-2-yl)amino)piperidin-1-yl)prop-2-en-1-one] was run?
A: The pIC50 was 6.30 to 7.00.

Q: What about the pIC50 (EGFR WT) of the same molecule?
A: The pIC50 was 6.00 to 6.30.

Q: What does the source list for `C=CC(=O)N1C2CC1CN(c1ncc3ncnc(Nc4cc(C)c(Oc5ccc6c(c5)nnn6C)cc4OC)c3n1)C2` [Compound 13, 1-(3-(8-((2-methoxy-5-methyl-4-((1-methyl-1H-benzo[d][1,2,3]triazol-5-yl)oxy)phenyl)amino)pyrimido[5,4-d]pyrimidin-2-y1)-3,6-diazabicyclo[3.1.1]heptan-6-yl)prop-2-en-1-one]?
A: pIC50 (ErbB2 V777L): 6.30 to 7.00; pIC50 (EGFR WT): 6.30 to 7.00

Q: Which results are given for `C=CC(=O)N1CCN(c2ncc3ncnc(Nc4ccc(Oc5ccn6nc(C)nc6c5)c(C)c4)c3n2)C[C@H]1C` [Compound 139]?
A: pIC50 (ErbB2 V777L): 6.30 to 7.00; pIC50 (EGFR WT): 6.30 to 7.00

Q: What does the source list for `C=CC(=O)N1CCN(c2ncc3ncnc(Nc4ccc(Oc5ccc6c(c5)nnn6C)cc4F)c3n2)CC1` [Compound 22, 1-(4-(8-((2-fluoro-4-((1-methyl-1H-benzo[d][1,2,3]triazol-5-yl)oxy)phenyl)amino)pyrimido[5,4-d]pyrimidin-2-yl)piperazin-1-yl)prop-2-en-1-one]?
A: pIC50 (ErbB2 V777L): 6.30 to 7.00; pIC50 (EGFR WT): 6.30 to 7.00

Q: Which results are given for `C=CC(=O)N1CCC2(CCN(c3ccc4ncnc(Nc5ccc(Oc6ccc7c(c6)nnn7C)c(C)c5)c4n3)C2)C1` (stereo not drawn) [Compound 311, 1-(7-(4-((3-methyl-4-((1-methyl-1H-benzo[d][1,2,3]triazol-5-yl)oxy)phenyl)amino)pyrido[3,2-d]pyrimidin-6-yl)-2,7-diazaspiro[4.4]nonan-2-yl)prop-2-en-1-one]?
A: pIC50 (ErbB2 V777L): 6.00 to 6.30; pIC50 (EGFR WT): ≤ 6.00

Q: With `C=CC(=O)N1C2C=C(c3ccc4ncnc(Nc5ccc(Oc6ccc7c(c6)nnn7C)c(C)c5F)c4n3)CC1CCC2` (stereo not drawn) [Compound 414, 1-(3-(4-((2-fluoro-3-methyl-4-((1-methyl-1H-benzo[d][1,2,3]triazol-5-yl)oxy)phenyl)amino)pyrido[3,2-d]pyrimidin-6-yl)-9-azabicyclo[3.3.1]non-2-en-9-yl)prop-2-en-1-one] as the molecule, how does the pIC50 (ErbB2 V777L) read?
A: Its pIC50 is 6.00 to 6.30.

Q: What about the pIC50 (EGFR WT) of the same molecule?
A: The pIC50 was 6.00 to 6.30.

Q: With `C=CC(=O)N1CCN(c2ccc3ncnc(Nc4ccc(Oc5ccc6c(c5)nnn6C)c(C)c4F)c3n2)C[C@H]1C(C)C` [Compound 259, (R)-1-(4-(4-((2-fluoro-3-methyl-4-((1-methyl-1H-benzo[d][1,2,3]triazol-5-yl)oxy)phenyl)amino)pyrido[3,2-d]pyrimidin-6-yl)-2-isopropylpiperazin-1-yl)prop-2-en-1-one] as the molecule, how does the pIC50 (ErbB2 V777L) read?
A: Its pIC50 is 6.00 to 6.30.

Q: And the pIC50 (EGFR WT)?
A: The pIC50 was at most 6.00.

Q: `C=CC(=O)N(C)CCN(C)c1ccc2ncnc(Nc3ccc(Oc4ccc5c(c4)nnn5C)c(C)c3)c2n1` [Compound 76, N-methyl-N-(2-(methyl(4-((3-methyl-4-((1-methyl-1H-benzo[d][1,2,3]triazol-5-yl)oxy)phenyl)amino)pyrido[3,2-d]pyrimidin-6-yl)amino)ethyl)acrylamide] was tested. Which pIC50 (ErbB2 V777L) did it give?
A: Its pIC50 is 6.30 to 7.00.

Q: What about the pIC50 (EGFR WT) of the same molecule?
A: The pIC50 was 6.00 to 6.30.

Q: How did the pIC50 (ErbB2 V777L) turn out when `C=CC(=O)N1CCN(c2ccc3ncnc(Nc4cc(C)c(Oc5ccc6c(c5)ncn6C(F)F)cc4OC)c3n2)C[C@H]1C` [Compound 307, (R)-1-(4-(4-((4-((1-(difluoromethyl)-1H-benzo[d]imidazol-5-yl)oxy)-2-methoxy-5-methylphenyl)amino)pyrido[3,2-d]pyrimidin-6-yl)-2-methylpiperazin-1-yl)prop-2-en-1-one] was run?
A: The pIC50 was 6.30 to 7.00.

Q: What about the pIC50 (EGFR WT) of the same molecule?
A: Its pIC50 is 6.30 to 7.00.

Q: With `C=CC(=O)N1C2CCC1CC(c1ccc3ncnc(Nc4ccc(Oc5ccc6c(c5)nnn6C)c(C)c4)c3n1)C2` (stereo not drawn) [Compound 397, 1-(3-(4-((3-methyl-4-((1-methyl-1H-benzo[d][1,2,3]triazol-5-yl)oxy)phenyl)amino)pyrido[3,2-d]pyrimidin-6-y1)-8-azabicyclo[3.2.1]octan-8-yl)prop-2-en-1-one trifluoroacetate] as the molecule, how does the pIC50 (ErbB2 V777L) read?
A: The pIC50 was 6.30 to 7.00.

Q: And the pIC50 (EGFR WT)?
A: The pIC50 was 6.00 to 6.30.

Q: How did the pIC50 (ErbB2 V777L) turn out when `C=CC(=O)N[C@H]1[C@@H]2CC[C@H]1CN(c1ncc3ncnc(Nc4ccc(Oc5ccc6c(c5)nnn6C)c(C)c4)c3n1)C2` [Compound 205, N-((1R,5S,8r)-3-(8-((3-methyl-4-((1-methyl-1H-benzo[d][1,2,3]triazol-5-yl)oxy)phenyl)amino)pyrimido[5,4-d]pyrimidin-2-yl)-3-azabicyclo[3.2.1]octan-8-yl)acrylamide] was run?
A: The pIC50 was at most 6.00.

Q: And the pIC50 (EGFR WT)?
A: The pIC50 was at most 6.00.

Q: With `C=CC(=O)N1C[C@@H](C)N(c2ncc3ncnc(Nc4ccc(Oc5ccc6c(c5)nnn6C)c(C)c4)c3n2)C[C@H]1C` [Compound 186, 1-((2R,5R)-2,5-dimethyl-4-(8-((3-methyl-4-((1-methyl-1H-benzo[d][1,2,3]triazol-5-yl)oxy)phenyl)amino)pyrimido[5,4-d]pyrimidin-2-yl)piperazin-1-yl)prop-2-en-1-one] as the molecule, how does the pIC50 (ErbB2 V777L) read?
A: The pIC50 was 6.30 to 7.00.

Q: And the pIC50 (EGFR WT)?
A: Its pIC50 is at most 6.00.

Q: How did the pIC50 (ErbB2 V777L) turn out when `C=CC(=O)N1[C@@H]2COC[C@H]1CN(c1ncc3ncnc(Nc4ccc(Oc5ccc6c(c5)nnn6C)c(C)c4)c3n1)C2` [Compound 140, 1-((1R,5S)-7-(8-((3-methyl-4-((1-methyl-1H-benzo[d][1,2,3]triazol-5-yl)oxy)phenyl)amino)pyrimido [5,4-d]pyrimidin-2-yl)-3-oxa-7,9-diazabicyclo[3.3.1]nonan-9-yl)prop-2-en-1-one] was run?
A: The pIC50 was 7.00 to 7.30.

Q: What about the pIC50 (EGFR WT) of the same molecule?
A: The pIC50 was 6.30 to 7.00.

Q: Which results are given for `C=CC(=O)N1CCN(c2ncc3ncnc(Nc4ccc(Oc5cc6nnn(C)c6c(F)c5C)c(C)c4)c3n2)CC1` [Compound 137, 1-(4-(8-((4-((7-fluoro-1,6-dimethyl-1H-benzo[d][1,2,3]triazol-5-yl)oxy)-3-methylphenyl)amino)pyrimido[5,4-d]pyrimidin-2-yl)piperazin-1-yl)prop-2-en-1-one]?
A: pIC50 (ErbB2 V777L): 6.30 to 7.00; pIC50 (EGFR WT): 6.30 to 7.00

Q: What does the source list for `C=CC(=O)N1CCN(c2ncc3ncnc(Nc4ccc(Oc5ccc6c(c5)nnn6C(F)F)c(C)c4)c3n2)CC1` [Compound 63, 1-(4-(8-((4-((1-(difluoromethyl)-1H-benzo[d][1,2,3]triazol-5-yl)oxy)-3-methylphenyl)amino)pyrimido[5,4-d]pyrimidin-2-yl)piperazin-1-yl)prop-2-en-1-one]?
A: pIC50 (ErbB2 V777L): 7.00 to 7.30; pIC50 (EGFR WT): > 7.30

Q: With `C=CC(=O)N1CCCN(c2ccc3ncnc(Nc4ccc(Oc5ccn6ncnc6c5)c(C)c4)c3n2)CC1` [Compound 357, 1-(4-(4-((4-([1,2,4]triazolo[1,5-a]pyridin-7-yloxy)-3-methylphenyl)amino)pyrido[3,2-d]pyrimidin-6-yl)-1,4-diazepan-1-yl)prop-2-en-1-one] as the molecule, how does the pIC50 (ErbB2 V777L) read?
A: The pIC50 was 7.00 to 7.30.

Q: And the pIC50 (EGFR WT)?
A: Its pIC50 is 6.00 to 6.30.

Q: `C=CC(=O)N1C2CCCC1CC(c1ccc3ncnc(Nc4ccc(Oc5ccc6c(c5)nnn6C)c(C)c4F)c3n1)C2` (stereo not drawn) [Compound 402, 1-(3-(4-((2-fluoro-3-methyl-4-((1-methyl-1H-benzo[d][1,2,3]triazol-5-yl)oxy)phenyl)amino)pyrido[3,2-d]pyrimidin-6-yl)-9-azabicyclo[3.3.1]nonan-9-yl)prop-2-en-1-one trifluoroacetate] was tested. Which pIC50 (ErbB2 V777L) did it give?
A: Its pIC50 is 6.30 to 7.00.

Q: What about the pIC50 (EGFR WT) of the same molecule?
A: The pIC50 was 6.30 to 7.00.

Q: With `C=CC(=O)N1CCN(c2ncc3ncnc(Nc4ccc(Oc5ccc6c(c5)nnn6C)c(C)c4)c3n2)[C@@H]2CC[C@H]21` [Compound 189, 1-((1R,6R)-5-(8-((3-methyl-4-((1-methyl-1H-benzo[d][1,2,3]triazol-5-yl)oxy)phenyl)amino)pyrimido[5,4-d]pyrimidin-2-y1)-2,5-diazabicyclo[4.2.0]octan-2-yl)prop-2-en-1-one] as the molecule, how does the pIC50 (ErbB2 V777L) read?
A: The pIC50 was 6.30 to 7.00.

Q: What about the pIC50 (EGFR WT) of the same molecule?
A: Its pIC50 is 6.00 to 6.30.
